Assay results reported in patent US20230293526A1, “METHOD FOR TREATING CANCER WITH A REVERSE TRANSCRIPTASE INHIBITOR” (PrimeFour Therapeutics, Inc., priority 2020, published 2023).
pIC50: −log10 of the molar value.

Key:
cancer cell lines = test: Cancer cell proliferation activity of representative nucleosides, CellTiterGlo 72 h (Example 7, Tables 8 and 9); type: cell-based; conditions: 72 h
Outline: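 Percent viability was set against 0.1% DMSO (100%) and 10 μM staurosporine (0%), with signal from CellTiterGlo luminescence. Dose-response treatment began one day after seeding and lasted 72 h at 37° C under 5% or 10% CO2, with 0.1% final DMSO.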

human LINE-1 = test: Human LINE-1 (L1) retrotransposition dual-luciferase reporter assay in HeLa cells; type: cell-based; conditions: Homo sapiens, HeLa, 72 h, read-out: Human LINE-1 IC50 (Human L1 activity inhibition)
Outline: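 Compound dilution series (final DMSO 0.2%) added right after transfecting HeLa cells with the pYX017 L1 dual-luciferase reporter; 72 h culture at 37 °C, 5% CO2, triplicates. IC50 fitted by non-linear logistic regression to firefly-to-Renilla luminescence ratio (×10,000).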

SMILES: C#C[C@]1(CO)O[C@@H](n2ccc(N)nc2=O)C[C@@H]1O [compound 7, 4-amino-1-((2R,4S,5R)-5-ethynyl-4-hydroxy-5 (hydroxymethyl)tetrahydrofuran-2-yl)pyrimidin-2(1H)-one]
- pIC50 (cancer cell lines; 72 h, 5637, bladder): 5.91
- pIC50 (cancer cell lines; CLS439, bladder): < 4.30
- pIC50 (cancer cell lines; HS729, muscle): 5.68
- pIC50 (cancer cell lines; J82, bladder): 5.56
- pIC50 (cancer cell lines; JAR, placenta): < 4.30
- pIC50 (cancer cell lines; MT3, breast): 6.24
- pIC50 (cancer cell lines; PC3, prostate): 5.96
- pIC50 (cancer cell lines; RD, muscle): 5.41
- pIC50 (cancer cell lines; T24, bladder): 5.99
- pIC50 (cancer cell lines; Homo sapiens, 22Rv1, 72 h, 22RV1, prostate): 5.32
- pIC50 (cancer cell lines; Homo sapiens, 786-0, 72 h, 786O, kidney): 5.37
- pIC50 (cancer cell lines; Homo sapiens, A204, 72 h, A204, muscle): 6.74
- pIC50 (cancer cell lines; Homo sapiens, A549, 72 h, A549, lung): 5.66
- pIC50 (cancer cell lines; Homo sapiens, A673, 72 h, A673, bone): 5.71
- pIC50 (cancer cell lines; Homo sapiens, A2780, 72 h, A2780, ovary): 5.57
- pIC50 (cancer cell lines; Homo sapiens, A-375, 72 h, A375, skin): 5.45
- pIC50 (cancer cell lines; Homo sapiens, A-431, 72 h, A431, skin): 5.70
- pIC50 (cancer cell lines; Homo sapiens, ACHN, kidney): 5.56
- pIC50 (cancer cell lines; Homo sapiens, ASPC1, 72 h, ASPC1, pancreas): 5.91
- pIC50 (cancer cell lines; Homo sapiens, BT-20, 72 h, BT20, breast): < 4.30
- pIC50 (cancer cell lines; Homo sapiens, BXPC-3, 72 h, BXPC3, pancreas): 5.39
- pIC50 (cancer cell lines; Homo sapiens, C-33-A, C33A, endometrial): 5.99
- pIC50 (cancer cell lines; Homo sapiens, CAKI-1, 72 h, CAKI1, kidney): 6.35
- pIC50 (cancer cell lines; Homo sapiens, COLO 205, 72 h, COLO205, colon): 6.54
- pIC50 (cancer cell lines; Homo sapiens, COLO-678, 72 h, COLO678, colon): < 4.30
- pIC50 (cancer cell lines; Homo sapiens, Ca-Ski, CASKI, endometrial): < 4.30
- pIC50 (cancer cell lines; Homo sapiens, Calu-6, 72 h, CALU6, lung): 5.20
- pIC50 (cancer cell lines; Homo sapiens, DLD-1, 72 h, DLD1, colon): 5.33
- pIC50 (cancer cell lines; Homo sapiens, DU-145, 72 h, DU145, prostate): 5.47
- pIC50 (cancer cell lines; Homo sapiens, EFO-21, 72 h, EFO21, ovary): < 4.30
- pIC50 (cancer cell lines; Homo sapiens, EJ-28, 72 h, EJ28, bladder): 5.52
- pIC50 (cancer cell lines; Homo sapiens, Granta-519, 72 h, GRANTA-519, hematological): 6.48
- pIC50 (cancer cell lines; Homo sapiens, HCT-15, 72 h, HCT15, colon): 5.48
- pIC50 (cancer cell lines; Homo sapiens, HCT-116, 72 h, HCT116, colon): 5.61
- pIC50 (cancer cell lines; Homo sapiens, HEK293, 72 h, HEK293, kidney): < 4.30
- pIC50 (cancer cell lines; Homo sapiens, HL-60, 72 h, HL-60, hematological): 5.69
- pIC50 (cancer cell lines; Homo sapiens, HT-29, 72 h, HT29, colon): 5.39
- pIC50 (cancer cell lines; Homo sapiens, HT-1080, 72 h, HT1080, connective tissue): 5.80
- pIC50 (cancer cell lines; Homo sapiens, HeLa, endometrial): 5.68
- pIC50 (cancer cell lines; Homo sapiens, HepG2, 72 h, HEPG2, liver): 5.51
- pIC50 (cancer cell lines; Homo sapiens, Hs-578T, HS578T, breast): 5.33
- pIC50 (cancer cell lines; Homo sapiens, IGROV-1, 72 h, IGROV1, ovary): 5.47
- pIC50 (cancer cell lines; Homo sapiens, IMR-90, 72 h, IMR90, lung): < 4.30
- pIC50 (cancer cell lines; Homo sapiens, JEG-3, 72 h, JEG3, placenta): < 4.30
- pIC50 (cancer cell lines; Homo sapiens, JIMT-1, 72 h, JIMT1, breast): 6.09
- pIC50 (cancer cell lines; Homo sapiens, K562, 72 h, K-562, hematological): 5.45
- pIC50 (cancer cell lines; Homo sapiens, Kasumi 1, 72 h, KASUMI-1, hematological): 6.49
- pIC50 (cancer cell lines; Homo sapiens, L-363, 72 h, L-363, hematological): < 4.30
- pIC50 (cancer cell lines; Homo sapiens, LoVo, colon): 5.72
- pIC50 (cancer cell lines; Homo sapiens, MCF7, 72 h, MCF7, breast): < 4.30
- pIC50 (cancer cell lines; Homo sapiens, MDA-MB-231, 72 h, MDAMB231, breast): 6.32
- pIC50 (cancer cell lines; Homo sapiens, MDA-MB-435, 72 h, MDAMB435, skin): 5.46
- pIC50 (cancer cell lines; Homo sapiens, MDA-MB-436, 72 h, MDAMB436, breast): 5.42
- pIC50 (cancer cell lines; Homo sapiens, MDA-MB-468, 72 h, MDAMB468, breast): < 4.30
- pIC50 (cancer cell lines; Homo sapiens, MG-63, 72 h, MG63, bone): 5.53
- pIC50 (cancer cell lines; Homo sapiens, MHH-ES-1, 72 h, MHHES1, bone): 5.69
- pIC50 (cancer cell lines; Homo sapiens, MIA PaCa-2, 72 h, MIAPACA2, pancreas): 5.26
- pIC50 (cancer cell lines; Homo sapiens, MINO, hematological): 6.70
- pIC50 (cancer cell lines; Homo sapiens, MV4-11, 72 h, MV4-11, hematological): 5.36
- pIC50 (cancer cell lines; Homo sapiens, NCI-H23, 72 h, NCI-H23, lung): 5.55
- pIC50 (cancer cell lines; Homo sapiens, NCI-H82, 72 h, NCIH82, lung): 4.77
- pIC50 (cancer cell lines; Homo sapiens, NCI-H292, 72 h, NCIH292, lung): 5.71
- pIC50 (cancer cell lines; Homo sapiens, NCI-H460, 72 h, NCIH460, ung): 5.52
- pIC50 (cancer cell lines; Homo sapiens, OVCAR-3, 72 h, OVCAR3, ovary): 5.62
- pIC50 (cancer cell lines; Homo sapiens, OVCAR-4, 72 h, OVCAR4, ovary): < 4.30
- pIC50 (cancer cell lines; Homo sapiens, PANC-1, 72 h, PANC1, pancreas): < 4.30
- pIC50 (cancer cell lines; Homo sapiens, PLC-PRF-5, 72 h, PLCPRF5, liver): < 4.30
- pIC50 (cancer cell lines; Homo sapiens, Panc1005, 72 h, PANC1005, pancreas): 5.59
- pIC50 (cancer cell lines; Homo sapiens, Ramos, hematological): 6.43
- pIC50 (cancer cell lines; Homo sapiens, SAOS-2, 72 h, SAOS2, bone): 6.19
- pIC50 (cancer cell lines; Homo sapiens, SK-BR-3, 72 h, SKBR3, breast): 5.68
- pIC50 (cancer cell lines; Homo sapiens, SK-HEP1, 72 h, SKHEP1, liver): 5.89
- pIC50 (cancer cell lines; Homo sapiens, SK-LMS-1, 72 h, SKLMS1, uterus): 5.38
- pIC50 (cancer cell lines; Homo sapiens, SK-MEL-5, 72 h, SKMEL5, skin): < 4.30
- pIC50 (cancer cell lines; Homo sapiens, SK-MEL-28, 72 h, SKMEL28, skin): < 4.30
- pIC50 (cancer cell lines; Homo sapiens, SK-OV-3, 72 h, SKOV3, ovary): 5.51
- pIC50 (cancer cell lines; Homo sapiens, SU-DHL10, 72 h, SU-DHL-10, hematological): 6.16
- pIC50 (cancer cell lines; Homo sapiens, SU-DHL-6, 72 h, SU-DHL-6, hematological): 5.97
- pIC50 (cancer cell lines; Homo sapiens, SW-620, 72 h, SW620, colon): 5.53
- pIC50 (cancer cell lines; Homo sapiens, TE-671, 72 h, TE671, muscle): 5.46
- pIC50 (cancer cell lines; Homo sapiens, THP-1, 72 h, THP-1, hematological): 5.46
- pIC50 (cancer cell lines; Homo sapiens, U2OS, bone): < 4.30
- pIC50 (cancer cell lines; Homo sapiens, UMUC3, 72 h, UMUC3, bladder): 5.51
- pIC50 (cancer cell lines; Homo sapiens, UO-31, 72 h, UO31, kidney): 5.82
- pIC50 (cancer cell lines; Homo sapiens, WSU-NHL, hematological): 6.47
- pIC50 (cancer cell lines; NCI-H358M, NCIH358M, lung): 6.54
- pIC50 (cancer cell lines; PBMC, hematological): < 4.30
- pIC50 (cancer cell lines; RD-ES, RDES, bone): < 4.30
- pIC50 (human LINE-1): 8.01
